Data set [1] deals with Carboxymethyl-cellulase (Asp. aculeatus). Kind of data set: Enzyme inhibition spectrum: carboxymethyl-cellulase (Asp. aculeatus). Set-up: key: ++: ID50 ≤ 1.0 μg; +: ID50 ≥ 1.0 μg; -: no inhibition. The settings on record: enzyme 100 μg; pH 5.0, 0.5% CM cellulose; measuring method C. The data set is classed as biochemical. The protocol: (§1) Each enzyme (200 μl) is incubated with Trehalostatin (0.01-50 μg) in 0.05 M acetate (pH 5-6) or phosphate (pH 6-7) buffer solution at 37° C. for 5 minutes. Then 20 μl of the resulting solution is collected and added with a substrate to a final concentration shown in the Table, making the total volume of the solution 100 μl. The mixture is incubated at 37° C. for 10 minutes and then incubated in a boiling water bath for 3 minutes to terminate the reaction.
(§2) Determination of activity was made by measuring the increase of the product in the reaction system according to the following methods A-C.
(§3) The quantity of Trehalostatin which can effect 50% inhibition of enzyme activity under the above-described conditions was indicated as ID50.
(§4) (C) The increase of an amount of reducing sugar produced was measured according to the method shown in J. A. Thoma et al., The Enzyme, 3rd. ed., Ch. 5, pp. 115-189 (1971).

Data set [2] concerns Trehalase (Chaetomium aureum). Kind of data set: Enzyme inhibition spectrum: trehalase (Chaetomium aureum). The settings on record: enzyme 15 μg; pH 5.5, 5 mM trehalase; measuring method A. The data set is classed as biochemical. The procedure: as §1, §2, §3
(§5) (A) The glucose produced was determined by the new blood sugar test devised by Boehringer-Mannheim Ltd.

Data set [3] relates to Trehalase (Aldrichina grahami). Kind of data set: Enzyme inhibition spectrum: trehalase (Aldrichina grahami). The data set is classed as biochemical. The procedure: 10 μl of an inhibitor solution and 10 μl of a trehalase solution (trehalase collected from Aldrichina grahami) were mixed. After 5 minutes incubation at 37° C., 80 μl of a 5 mM trehalose and 50 mM phosphate buffer solution (pH 6.5) was added, followed by an additional one-hour incubation at 37° C. Thereafter, 10 μl of a 50% trichloroacetic acid solution was added to terminate the reaction. Glucose formed in the reaction solution was determined by a new blood sugar test manufactured by Boehringer-Mannheim Ltd. The amount of the enzyme was such that absorbance of the wavelength ([…]) used in the glucose determination when conducted according to the above method without adding the inhibitor would become 1.0. The Trehalostatin concentration which can achieve 50% inhibition of enzyme (trehalase) activity in the above determination method was expressed as 1 unit/ml.
Each enzyme (200 μl) is incubated with Trehalostatin (0.01-50 μg) in 0.05 M acetate (pH 5-6) or phosphate (pH 6-7) buffer solution at 37° C. for 5 minutes. Then 20 μl of the resulting solution is collected and added with a substrate to a final concentration shown in the Table, making the total volume of the solution 100 μl. […]
as §5

A short description of data set [4]: Solubility of Trehalostatin. The data set is classed as physicochemical.
In data set [5] the test system is avicelase (Asp. aculeatus). Kind of data set: Enzyme inhibition spectrum: avicelase (Asp. aculeatus). The settings on record: enzyme 2000 μg; pH 5.0, 0.5% avicel; measuring method C. The data set is classed as biochemical. Set-up: key: ++: ID50 ≤ 1.0 μg; +: ID50 ≥ 1.0 μg; -: no inhibition. The procedure: as §1, §2, §3, §4
Data set [6] has as its target T1, β-amylase (sweet potato) (Ipomoea batatas, UniProt P10537).
T1 construct: purchased Sigma; host or cells: sweet potato
Kind of data set: Enzyme inhibition spectrum: β-amylase (sweet potato). The data set is classed as biochemical. The settings on record: enzyme 12.5 μg; pH 5.0, 0.5% starch; measuring method C. Set-up: key: ++: ID50 ≤ 1.0 μg; +: ID50 ≥ 1.0 μg; -: no inhibition. The protocol:
as §1, §2, §3, §4

The test system of data set [7] is Gluco amylase (Rhizopus niveus). Kind of data set: Enzyme inhibition spectrum: Gluco amylase (Rhizopus niveus). Type of data set: biochemical. The settings on record: enzyme 2 μg; pH 5.5, 0.5% starch; measuring method A. Set-up: key: ++: ID50 ≤ 1.0 μg; +: ID50 ≥ 1.0 μg; -: no inhibition. The procedure:
as §1, §2, §3, §5

Data set [8] has as its system Gluco amylase (almond). Kind of data set: Enzyme inhibition spectrum: Gluco amylase (almond), salicin substrate. The data set is classed as biochemical. Set-up: key: ++: ID50 ≤ 1.0 μg; +: ID50 ≥ 1.0 μg; -: no inhibition. The settings on record: enzyme 10 μg; pH 5.0, 0.5% salicin; measuring method A. The procedure:
as §1, §2, §3, §5

For data set [9], the target named is T2, Trehalase (swine kidney) (Sus scrofa, UniProt I3LIR5).
T2 construct: purchased Sigma M8778; host or cells: swine kidney
T2 sequence (I3LIR5 24-583): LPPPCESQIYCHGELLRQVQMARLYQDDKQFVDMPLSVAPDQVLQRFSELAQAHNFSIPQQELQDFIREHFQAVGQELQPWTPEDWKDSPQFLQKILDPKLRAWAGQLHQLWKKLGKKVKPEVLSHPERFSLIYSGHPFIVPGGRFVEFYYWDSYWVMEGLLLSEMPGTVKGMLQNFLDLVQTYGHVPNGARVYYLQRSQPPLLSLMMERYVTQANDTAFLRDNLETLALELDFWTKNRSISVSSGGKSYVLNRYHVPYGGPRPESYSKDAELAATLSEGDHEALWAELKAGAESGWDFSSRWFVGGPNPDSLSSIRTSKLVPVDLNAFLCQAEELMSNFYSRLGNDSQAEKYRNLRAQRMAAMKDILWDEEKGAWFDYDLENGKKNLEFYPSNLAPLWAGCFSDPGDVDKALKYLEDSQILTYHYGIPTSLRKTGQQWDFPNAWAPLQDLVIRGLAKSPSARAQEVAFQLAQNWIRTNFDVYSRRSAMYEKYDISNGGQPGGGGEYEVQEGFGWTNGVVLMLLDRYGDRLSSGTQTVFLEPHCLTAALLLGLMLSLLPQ
Kind of data set: Enzyme inhibition spectrum: trehalase (swine kidney). The data set is classed as biochemical. Particulars: enzyme 1.1 unit (nmol glucose/min); pH 6.5, 5 mM trehalase; measuring method A. The protocol: as §1, §2, §3, §5

T1 sequence (P10537 whole entry): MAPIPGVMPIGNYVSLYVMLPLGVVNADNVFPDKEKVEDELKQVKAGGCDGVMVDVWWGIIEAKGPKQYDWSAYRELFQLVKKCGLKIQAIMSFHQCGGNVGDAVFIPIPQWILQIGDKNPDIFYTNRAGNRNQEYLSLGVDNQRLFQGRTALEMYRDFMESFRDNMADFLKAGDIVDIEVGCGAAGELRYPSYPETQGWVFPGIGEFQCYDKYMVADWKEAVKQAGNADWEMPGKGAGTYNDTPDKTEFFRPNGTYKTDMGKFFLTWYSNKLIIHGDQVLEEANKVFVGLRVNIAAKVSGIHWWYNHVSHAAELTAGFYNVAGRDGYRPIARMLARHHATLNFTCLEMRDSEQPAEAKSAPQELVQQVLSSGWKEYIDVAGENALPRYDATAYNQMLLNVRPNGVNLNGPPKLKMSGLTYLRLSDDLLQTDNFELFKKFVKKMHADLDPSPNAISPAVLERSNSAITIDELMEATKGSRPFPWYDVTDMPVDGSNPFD

Take `OC[C@H]1O[C@H](N=C2NC3C(O2)C(O)C(O)C3(O)CO)[C@H](O)[C@@H](O)[C@@H]1O` (some centres unmarked) [Trehalostatin]: the “Action (ID50)” value was “-” in data set [1]; “+ (ID50 ≥ 1.0 μg)” in data set [2]; “++ (ID50 ≤ 1.0 μg)” in [3] (enzyme 24 unit (nmol glucose/min), pH 5.5, 5 mM trehalase, measuring method A); “-” in data set [5]; “-” in [6]; “-” in [7]. Also, the entries for the “Action (ID50)” value in data set [8] and in data set [9] were “-” and “+ (ID50 ≥ 1.0 μg)”, respectively. In addition, in data set [3] (trehalase in insects, especially Aldrichina grahami, statement in words), the “inhibitory effect against trehalase in insects” value is reported as “effective inhibitory effect against trehalase in insects, especially in Aldrichina grahami, even at a very low concentration”. In addition, the Solubility result is reported as “hardly or only slightly soluble” in [4] (in hexane, benzene, ethers and petroleum ether); “soluble in water” in data set [4] (in water).

Source of the values: US5372816A, “Trehalostatin and process for the preparation thereof” (Suntory Limited, priority 1989, dated 1994).
